Reference: the NIST ThermoML archive (doi:10.1021/je100949x)
± gives the expanded uncertainty stated by the source.

Experiment: xn = mol fraction of the nth substance listed
Details: Maximal bubble pressure

Work on CCCCn1cc[n+](C)c1.[Cl-] [1-butyl-3-methylimidazolium chloride] + O yielded a surface tension liquid-gas (298.1 K, x1 = 0.011) of 66.2 ± 1.1 mN/m, a surface tension liquid-gas (298.1 K, x1 = 0.015) of 65.5 ± 1.9 mN/m and a surface tension liquid-gas (298.1 K, x1 = 0.018) of 64.7 ± 3.4 mN/m. For the same molecule, the surface tension liquid-gas (298.2 K, x1 = 0.004) was 69.9 ± 1 mN/m, the surface tension liquid-gas (298.2 K, x1 = 0.025) was 64.5 ± 4 mN/m and the surface tension liquid-gas (298.2 K, x1 = 0.031) was 63.7 ± 0.7 mN/m. For the same molecule, the surface tension liquid-gas (298.3 K, x1 = 0.007) was 68.8 ± 1.5 mN/m, the surface tension liquid-gas (298.3 K, x1 = 0.053) was 61.7 ± 0.7 mN/m and the surface tension liquid-gas (298.3 K, x1 = 0.073) was 59.9 ± 1 mN/m. For the same molecule, the surface tension liquid-gas (298.7 K, x1 = 0.142) was 56.7 ± 0.5 mN/m, the surface tension liquid-gas (298.9 K, x1 = 0.112) was 57.6 ± 1.2 mN/m and the surface tension liquid-gas (298.9 K, x1 = 0.226) was 55 ± 0.5 mN/m. It also gave a surface tension liquid-gas (299 K, x1 = 0.188) of 55.4 ± 0.5 mN/m, a surface tension liquid-gas (299.1 K, x1 = 0.004) of 68.9 ± 2.3 mN/m and a surface tension liquid-gas (299.2 K, x1 = 0.009) of 66.5 ± 0.6 mN/m. It also gave a surface tension liquid-gas (299.2 K, x1 = 0.016) of 65 ± 0.7 mN/m, a surface tension liquid-gas (299.2 K, x1 = 0.023) of 63.8 ± 0.9 mN/m and a surface tension liquid-gas (299.2 K, x1 = 0.303) of 55 ± 0.5 mN/m. It also gave a surface tension liquid-gas (299.3 K, x1 = 0.03) of 62.8 ± 1.5 mN/m, a surface tension liquid-gas (299.5 K, x1 = 0.033) of 63.3 ± 1.2 mN/m and a surface tension liquid-gas (299.5 K, x1 = 0.037) of 63 ± 1 mN/m. For the same molecule, the surface tension liquid-gas (299.5 K, x1 = 0.374) was 54.9 ± 0.5 mN/m, the surface tension liquid-gas (299.6 K, x1 = 0.028) was 64.1 ± 1.4 mN/m and the surface tension liquid-gas (299.7 K, x1 = 0.002) was 70.5 ± 0.4 mN/m. It also gave a surface tension liquid-gas (299.7 K, x1 = 0.011) of 67.1 ± 0.9 mN/m, a surface tension liquid-gas (299.7 K, x1 = 0.017) of 65.6 ± 0.6 mN/m and a surface tension liquid-gas (299.9 K, x1 = 0.067) of 59.3 ± 0.5 mN/m. The surface tension liquid-gas (300 K, x1 = 0.048) was 61 ± 4.1 mN/m, the surface tension liquid-gas (300.1 K, x1 = 0.422) was 54.3 ± 0.6 mN/m and the surface tension liquid-gas (300.3 K, x1 = 0.077) was 59.6 ± 1.2 mN/m. It also gave a surface tension liquid-gas (300.3 K, x1 = 0.11) of 57 ± 0.5 mN/m, a surface tension liquid-gas (300.4 K, x1 = 0.089) of 57.9 ± 0.6 mN/m and a surface tension liquid-gas (300.4 K, x1 = 0.292) of 53.7 ± 0.9 mN/m. The surface tension liquid-gas (300.5 K, x1 = 0.139) was 55.8 ± 0.7 mN/m, the surface tension liquid-gas (300.5 K, x1 = 0.198) was 54.9 ± 0.4 mN/m and the surface tension liquid-gas (300.6 K, x1 = 0.134) was 55.9 ± 0.4 mN/m. For the same molecule, the surface tension liquid-gas (300.6 K, x1 = 0.48) was 54.1 ± 0.5 mN/m, the surface tension liquid-gas (300.7 K, x1 = 0.163) was 55.4 ± 0.4 mN/m and the surface tension liquid-gas (300.9 K, x1 = 0.36) was 53.8 ± 1.3 mN/m. It also gave a surface tension liquid-gas (301.1 K, x1 = 0.225) of 54.4 ± 0.5 mN/m, a surface tension liquid-gas (301.2 K, x1 = 0.268) of 54.8 ± 0.5 mN/m and a surface tension liquid-gas (301.6 K, x1 = 0.329) of 54.6 ± 0.6 mN/m. The surface tension liquid-gas (302.1 K, x1 = 0.398) was 54.4 ± 0.5 mN/m.
Molecule CCCCn1cc[n+](C)c1.F[B-](F)(F)F [1-butyl-3-methylimidazolium tetrafluoroborate] + O has a surface tension liquid-gas (298 K, x1 = 0.053) of 47.7 ± 0.5 mN/m, a surface tension liquid-gas (298 K, x1 = 0.114) of 48.1 ± 0.3 mN/m and a surface tension liquid-gas (298.1 K, x1 = 0.014) of 52.4 ± 6 mN/m. The surface tension liquid-gas (298.1 K, x1 = 0.046) was 47.8 ± 3.6 mN/m, the surface tension liquid-gas (298.2 K, x1 = 0.007) was 60.4 ± 4.6 mN/m and the surface tension liquid-gas (298.2 K, x1 = 0.021) was 49.2 ± 9.6 mN/m. For the same molecule, the surface tension liquid-gas (298.3 K, x1 = 0.029) was 47.8 ± 0.6 mN/m, the surface tension liquid-gas (298.3 K, x1 = 0.033) was 47.9 ± 0.6 mN/m and the surface tension liquid-gas (298.3 K, x1 = 0.068) was 48.1 ± 1.1 mN/m. For the same molecule, the surface tension liquid-gas (298.3 K, x1 = 0.186) was 48.1 ± 0.4 mN/m, the surface tension liquid-gas (298.4 K, x1 = 0.004) was 60.8 ± 3.2 mN/m and the surface tension liquid-gas (298.4 K, x1 = 0.019) was 48.9 ± 8.2 mN/m. For the same molecule, the surface tension liquid-gas (298.4 K, x1 = 0.028) was 48 ± 1.1 mN/m, the surface tension liquid-gas (298.4 K, x1 = 0.114) was 48.1 ± 0.9 mN/m and the surface tension liquid-gas (298.4 K, x1 = 0.17) was 48.1 ± 0.9 mN/m. For the same molecule, the surface tension liquid-gas (298.4 K, x1 = 0.228) was 47.9 ± 1 mN/m, the surface tension liquid-gas (298.5 K, x1 = 0.006) was 56.1 ± 7.4 mN/m and the surface tension liquid-gas (298.5 K, x1 = 0.009) was 53.2 ± 6.8 mN/m. For the same molecule, the surface tension liquid-gas (298.5 K, x1 = 0.013) was 50.7 ± 4 mN/m, the surface tension liquid-gas (298.5 K, x1 = 0.109) was 48.4 ± 2.7 mN/m and the surface tension liquid-gas (298.5 K, x1 = 0.163) was 48.2 ± 0.5 mN/m. The surface tension liquid-gas (298.6 K, x1 = 0.026) was 48.5 ± 1.5 mN/m, the surface tension liquid-gas (298.6 K, x1 = 0.061) was 48.4 ± 0.4 mN/m and the surface tension liquid-gas (298.6 K, x1 = 0.233) was 47.9 ± 0.4 mN/m. It also gave a surface tension liquid-gas (298.6 K, x1 = 0.292) of 47.6 ± 0.9 mN/m, a surface tension liquid-gas (298.6 K, x1 = 0.355) of 47.5 ± 0.7 mN/m and a surface tension liquid-gas (298.7 K, x1 = 0.014) of 50.7 ± 1.3 mN/m. The surface tension liquid-gas (298.7 K, x1 = 0.05) was 48.3 ± 1.7 mN/m, the surface tension liquid-gas (298.7 K, x1 = 0.42) was 47.4 ± 0.7 mN/m and the surface tension liquid-gas (298.8 K, x1 = 0.01) was 53.2 ± 4.9 mN/m. For the same molecule, the surface tension liquid-gas (298.8 K, x1 = 0.319) was 47.7 ± 0.4 mN/m, the surface tension liquid-gas (298.9 K, x1 = 0.392) was 47.5 ± 0.4 mN/m and the surface tension liquid-gas (298.9 K, x1 = 0.435) was 47.2 ± 0.7 mN/m. The surface tension liquid-gas (299 K, x1 = 0.004) was 60.3 ± 22 mN/m and the surface tension liquid-gas (299.2 K, x1 = 0.51) was 47.3 ± 0.8 mN/m.
Work on O [water] + CCCCn1cc[n+](C)c1.F[B-](F)(F)F yielded a surface tension liquid-gas (298.1 K, x2 = 0) of 72 ± 3.6 mN/m, a surface tension liquid-gas (298.5 K, x2 = 0) of 71.9 ± 7.7 mN/m and a surface tension liquid-gas (298.9 K, x2 = 0) of 71.8 ± 8.2 mN/m.
In the case of O [water] + CCCCn1cc[n+](C)c1.[Cl-], the surface tension liquid-gas (298.1 K, x2 = 0) is reported as 71.9 ± 0.7 mN/m, the surface tension liquid-gas (298.9 K, x2 = 0) is reported as 71.7 ± 0.6 mN/m and the surface tension liquid-gas (299.7 K, x2 = 0) is reported as 71.6 ± 0.4 mN/m.
